# Entries after “also recorded” stand apart in the source; their conditions may differ.
# What was measured:
# [1] = tested on: wild-type mice; assay: Exercise-activity assay in wild-type mice; assay type: in vivo, mouse
# [2] = tested on: dystrophic or nNOS-null mice; assay: Exercise-activity assay in dystrophic or nNOS-null mice; assay type: in vivo, mouse
# [3] = tested on: wild-type and mdx mice; settings: Thomas et al. 1998; cited from earlier work
# [4] = tested on: rats; settings: Wang et al. 2001; cited from earlier work
# [5] = tested on: human forearm; settings: local intra-arterial infusion, Seddon et al. 2008; cited from earlier work
# [6] = tested on: wild-type mice; settings: Kinugawa et al. 2005; cited from earlier work
# [7] = tested on: mdx mice; assay: Exercise-activity assay (mild treadmill exercise, then open-field activity chamber) in mdx mice; assay type: in vivo, mouse; settings: treatment before mild treadmill exercise
# [8] = tested on: mammals; settings: Barbato et al. 2005; cited from earlier work
# [9] = tested on: wild-type mice; settings: Miki et al. 2002; cited from earlier work
# [10] = tested on: nNOS-null mice; assay: Exercise/activity assay in nNOS-null mice; assay type: in vivo, mouse; settings: administration prior to exercise
# [11] = tested on: DGC models of muscular dystrophy; assay: Exercise/activity assay in DGC models of muscular dystrophy; assay type: in vivo, mouse; settings: administration prior to exercise
# [12] = tested on: DGC models of muscular dystrophy; assay: Serum creatine kinase following exercise; assay type: in vivo, mouse; settings: mice subjected to eccentric contractions, 2 hours post-exercise
# Description: In the assay, mice are initially placed in an activity cage for thirty minutes, and different activity measurements are measured and monitored during this time frame. The mice are then bled to measure serum creatine kinase (CK) levels and then the mice are injected with Evans Blue Dye. […]. Twenty-four hours later, the mice are then subject to a ten minute exercise protocol on a treadmill with a fifteen degree downhill incline at fifteen meters per minute. Following the exercise protocol, the mice are placed back in the activity cage, and post-exercise activity is measured for thirty minutes. […]
# The pharmacological screen utilizes an exercise-activity assay to identify compounds that facilitate NO signaling in muscle having mislocalized nNOS. In the assay, mice are initially placed in an activity cage for thirty minutes to measure pre-exercise activity, and different activity measurements are measured and monitored during this time frame. […] Following the exercise protocol, the mice are placed back in the activity cage, and post-exercise activity is measured for thirty minutes. […]
# Serum Creatine Kinase Assays. Blood for quantitative, kinetic determination of serum creatine kinase activity was collected either after the pre-exercise activity analysis or 2 hours post-exercise by mouse tail vein bleeds, using a Sarstedt microvette CB 300, from non-anesthetized restrained mice. […]
# [13] = tested on: DGC models of muscular dystrophy; assay: Evans Blue Dye uptake in muscle following exercise; assay type: in vivo, mouse; settings: mice subjected to eccentric contractions
# [14] = target: PDE5A (Homo sapiens, UniProt O76074); assay: PDE5A inhibition; assay type: biochemical; settings: at plasma concentration from 300 mg/kg/day
molecule,measurement,setting,value
O=[N+]([O-])c1cccc2c(Br)n[nH]c12 [3-bromo-7-nitroindazole],post-exercise activity,[1],caused post-exercise inactivity
COC(=O)[C@@H](N)CCCNC(=N)N[N+](=O)[O-] [L-NAME],post-exercise activity,[1],reduced post-exercise activity to levels similar to those in nNOS-null mice post-exercise
same,post-exercise activity,[2],reduced the activity post-exercise even more
same,femoral blood flow velocity and vascular conductance,[3],decreases femoral blood flow velocity and vascular conductance
same,mean arterial pressure,[3],increases mean arterial pressure
same,walking speed,[4],severely reduces walking speed
CNC(=N)NCCC[C@H](N)C(=O)O [L-NMMA],resting blood flow,[5],reduces resting blood flow
NC(=NCCC[C@H](N)C(=O)O)N[N+](=O)[O-] [L-NNA],exercise-induced hyperemia and exercise capacity,[6],prevents adequate exercise-induced hyperemia and limits exercise capacity during exhaustive treadmill running
CC1(C)CC(O)CC(C)(C)N1[O] [Tempol],post-exercise activity / exaggerated fatigue response to mild exercise,[7],had no effect on the exaggerated fatigue response
CC(=O)OCC(=O)[C@@]12N=C(C)O[C@@H]1C[C@H]1[C@@H]3CCC4=CC(=O)C=C[C@]4(C)[C@H]3[C@@H](O)C[C@@]12C [deflazacort],post-exercise activity / exaggerated fatigue response to mild exercise,[7],neither treatment resulted in improved post-exercise activity; also recorded: did not ameliorate inactivity post-exercise
CC(C)Cc1ccc(C(C)C(=O)O)cc1 (stereo not shown) [ibuprofen],post-exercise activity / exaggerated fatigue response to mild exercise,[7],neither treatment resulted in improved post-exercise activity
O=C(NCCO[N+](=O)[O-])c1cccnc1 [nicorandil],blood pressure,[8],significantly reducing blood pressure in mammals
CC(N/C(=N\C#N)Nc1ccncc1)C(C)(C)C (stereo not shown) [pinacidil],mean arterial pressure,[9],decreases mean arterial pressure
"CCCc1nn(C)c2c(=O)nc(-c3cc(S(=O)(=O)N4CCN(C)CC4)ccc3OCC)[nH]c12 [sildenafil, 5-[2-ethoxy-5-(4-methylpiperazin-1-yl)sulfonylphenyl]-1-methyl-3-propyl-4H-pyrazolo[5,4-e]pyrimidin-7-one]",post-exercise activity / exaggerated fatigue response to mild exercise,[7],very effective at preventing the exercise-induced fatigue
same,post-exercise activity,[10],dramatically increased post-exercise activity
same,post-exercise activity,[11],very effective at preventing the loss of activity following exercise; also recorded: dramatically increased post-exercise activity
same,serum CK following exercise,[12],prevent an increase in serum CK
same,Evans Blue Dye uptake in muscle following exercise,[13],prevent an increase in serum CK and Evans Blue Dye uptake in muscle following exercise
same,enzyme activity inhibited,[14],more than 50%
CN1CC(=O)N2[C@H](c3ccc4c(c3)OCO4)c3[nH]c4ccccc4c3C[C@@H]2C1=O [tadalafil],post-exercise activity / exaggerated fatigue response to mild exercise,[7],very effective at preventing the exercise-induced fatigue
sarafotoxin 6c,post-exercise activity,[1],caused post-exercise inactivity
superoxide dismutase,post-exercise activity / exaggerated fatigue response to mild exercise,[7],neither method of SOD exposure had an effect on the exaggerated fatigue response
